We go through four compounds from patent US11878984B2, “Compounds derived from Streptomyces and uses thereof” (KOREA INSTITUTE OF OCEAN SCIENCE & TECHNOLOGY, priority 2018, dated 2024).

Structures are written as SMILES.

For data set [1], the system named is BV-2 microglial cells. Description: Nitrite assay: LPS-stimulated NO production in BV-2 microglial cells. It counts as cell-based. Particulars: for NO production decreased compared to the control group: 100 μM compound. Here is the method: (§1) BV-2 microglial cells were cultured in Dulbecco's modified Eagle medium supplemented with 5% Fetal bovine serum and 1% 100 units/mL of penicillin/streptomycin at 37° C. in a humidified 5% CO2 incubator.
For Nitrite assay, the BV-2 microglial cells seeded at a density of 1.25×10^5 cell/each well in 24-well plate were pretreated with various concentrations of compounds 1-4 for 1 h, followed by LPS (200 ng/mL) for 24 h. A range of sodium nitrite dilutions was used to obtain a standard curve with the amount of nitrite in each sample. Absorbance was determined at 540 nm using a microplate reader (Tecan Trading AG).

Data set [2] relates to BV-2 microglial cells. Description: MTT assay: cell viability of LPS-stimulated BV-2 microglial cells. It counts as cell-based. Here is the method: as §1
The BV-2 microglial cells seeded at a density of 1.25×10^5 cell/each well in 24-well plate were pretreated with various concentration of compounds (12.5, 25, 50, and 100 μM for compounds 1-3 and 1, 2, 4, and 8 μM for compound 4) for 1 h, followed by LPS (200 ng/mL) for 24 h. 20 μL of MTT (2 mg/mL) solution was added to each well. After 1 h, the supernatant was sucked out and crystals of formazan were dissolved in DMSO. Optical density was measured at 550 nm using a microplate reader (Tecan Trading AG) and values were determined in comparison to control cells.
For orientation: Formazan colour is commonly taken as a measure of viable cells.

Setting [3] is: pretreated 1 h, then LPS (200 ng/mL) 24 h.

As for `C/C=C/C=C/CC[C@]12OCC[C@@H]3OC[C@](O)(CO1)[C@@H]32` [Compound 1, (2aS,2a^1R,4aS,7aS)-7a-((3E,5E)-hepta-3,5-diene-1-yl)tetrahydro-2H,6H,1,4,7-trioxacyclopenta[cd]indene-2a(3H)-ol], the “NO production decreased compared to the control group” value (shortened to “NO production decreased”) with BV-2 microglial cells [1] (setting [3]) is “about 22%”.

For `C/C=C/C=C/C=C/[C@]12OCC[C@@H]3OC[C@](O)(CO1)[C@@H]32` [Compound 2, (2aS,2a^1R,4aS,7aS)-7a-((1E,3E,5E)-hepta-1,3,5-triene-1-yl)tetrahydro-2H, 6H,1,4,7-trioxacyclopenta[cd]indene-2a(3H)-ol], in the data set with BV-2 microglial cells [1] (setting [3]), the “NO production decreased” value is listed as “about 25%”.

`C/C=C/C=C/CC[C@]12OCC[C@@H]3OC[C@](OC(=O)c4ccccc4N)(CO1)[C@@H]32` [Compound 3, (2aS,2a^1R,4aS,7aS)-7a-((3E,5E)-hepta-3,5-diene-1-yl)tetrahydro-2H,6H,1,4,7-trioxacyclopenta[cd]indene-2a(3H)-yl-2-aminobenzoate]: the “NO production decreased” value with BV-2 microglial cells [1] (setting [3]) is listed as “about 50%”.

With `C/C=C/C=C/C=C/[C@]12OCC[C@@H]3OC[C@](OC(=O)c4ccccc4N)(CO1)[C@@H]32` [Compound 4, (2aS,2a^1R,4aS,7aS)-7a-((1E, 3E,5E)-hepta-1,3,5-triene-1-yl)tetrahydro-2H, 6H,1,4,7-trioxacyclopenta[cd]indene-2a(3H)-yl-2-aminobenzoate], the “NO production reduced compared to the control group” value with BV-2 microglial cells [1] (compound at low concentration of 1 to 8 μM, pretreated 1 h, then LPS (200 ng/mL) 24 h) is “about 93%”. Further, the “NO production inhibiting effect” value in the data set on BV-2 microglial cells [1] (low concentration of less than 10 μM) is on record as “strong NO production inhibiting effect”. Also, the cellular viability entry in the data set with BV-2 microglial cells [2] (1, 2, 4 and 8 μM, pretreated 1 h, then LPS (200 ng/mL) 24 h, MTT, compared to control cells) is given as “less than 80%”. For the same compound, the cytotoxicity entry with BV-2 microglial cells [2] (low concentration of less than 10 μM, BV-2 microglial cells (FIG. 12)) is given as “cytotoxicity”.
